Results: patent US6841519B1, “Isoxazoline derivatives and herbicides containing the same as the active ingredient” (Kumiai Chemical Industry Co., Ltd., priority 1999, dated 2005)

Columns and labels:
Type in all cases: in vivo
[1] = test system: Chenopodium album L. (Ch); assay: Test for herbicidal effect to broadleaf weeds by upland field soil treatment (Test Example 6), Ch; conditions: 25 g/10 a active ingredient, 30th day
Protocol: (§1) Test for herbicidal effect to broadleaf weeds by upland field soil treatment
(§2) An upland field soil was filled in a plastic pot of 80 cm^2. Seeds of Polygonum lapathifolium L. subsp. nodosum (Pers.) Kitam. (Po) and Chenopodium album L. (Ch) were sowed, followed by covering with the same soil. Wettable powders produced in accordance with the Formulation 1 were diluted with water and sprayed uniformly on the soil surface using a small sprayer, […] Then, breeding was made in a greenhouse. At the 30th day from the treatment, the herbicidal effect of each wettable powder was examined in accordance with the standard shown in Table 40.

[2] = test system: Echinochloa oryzicola Vasing. (Eo); assay: Test for herbicidal effect by paddy field soil treatment (Test Example 1); conditions: application amount (active ingredient) 100 g/10 a, examined at the 21st day from the treatment, index per Table 40
Method in brief: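 Scored on a standard scale at day 21 in the greenhouse: herbicidal effect of wettable powder applied to flooded water (3 cm depth) at 100 g a.i./10 ares, one day after sowing Eo into puddled paddy soil.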

[3] = test system: Echinochloa crus-galli (L.) Beauv. var. crusgall (Ec); assay: Test for herbicidal effect by upland field soil treatment (Test Example 2), Ec
Method in brief: (§3)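 Pre-emergence soil treatment: wettable powder diluted in water and sprayed on soil just sown with Ec and Se seeds, delivering 100 g active ingredient per 10 ares in 100 liters per 10 ares. Herbicidal effect was rated against a fixed scale 21 days later, after greenhouse growth.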

[4] = test system: Echinochloa crus-galli (L.) Beauv. var. crusgalli (Ec); assay: Test for herbicidal effect by upland foliage treatment (Test Example 3); conditions: 100 g/10 a active ingredient, examined at 14th day
Method in brief: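 Scored 14 days post-spray against a graded standard: greenhouse-grown Ec, 2 weeks old in upland soil, received whole-foliage application of diluted wettable powder (100 g active ingredient per 10 ares, spray volume 100 L per 10 ares).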

[5] = test system: Setaria viridis (L.) Beauv. (Se); assay: Test for herbicidal effect by upland field soil treatment (Test Example 2), Se
Method in brief: as §3

[6] = test system: Polygonum lapathifolium L. subsp. nodosum (Pers.) Kitam. (Po); assay: Test for herbicidal effect to broadleaf weeds by upland field soil treatment (Test Example 6), Po; conditions: 25 g/10 a active ingredient, 30th day
Protocol: as §1, §2

rice (Or) = assay: Test for crop selectivity by paddy field soil treatment (Test Example 4), phytotoxicity to rice; conditions: transplanted two-leaf stage rice, 100 g/10 a active ingredient, 21st day
Method in brief: (§4)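 Puddled paddy soil sown with Eo seeds, two-leaf rice transplanted at 2 cm depth, flooded 3 cm. Next day, wettable powder diluted in water was dropped on the water surface at 100 g a.i. per 10 ares. Herbicidal effect and rice phytotoxicity scored visually 21 days after treatment, greenhouse.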

[7] = test system: Echinochloa oryzicola Vasing. (Eo); assay: Test for crop selectivity by paddy field soil treatment (Test Example 4), herbicidal effect on Eo; conditions: 100 g/10 a active ingredient, 21st day
Method in brief: as §4

[8] = application amount (active ingredient) 100 g/10 a, examined at the 21st day from the treatment, index per Table 40
[9] = 100 g/10 a active ingredient, examined at 21st day

Compound | Herbicidal effect to Ch [1] | Herbicidal effect to Eo [2] | Herbicidal effect to Ec [3, 8] | Herbicidal effect to Ec [4] | Herbicidal effect to Se [5, 8] | Herbicidal effect to Po [6] | Herbicidal effect to Ec [3, 9] | Herbicidal effect to Se [5, 9] | Phytotoxicity to Or (rice (Or)) | Herbicidal effect to Eo [7]
CC1(C)CC(S(=O)(=O)Cc2ccccc2Cl)=NO1 [Compound 1-2] | 4 (A herbicidal effect or phytotoxicity of 70% to less than 90%) | 5 (A herbicidal effect or phytotoxicity of 90% or more) | 5 (A herbicidal effect or phytotoxicity of 90% or more) | 4 (A herbicidal effect or phytotoxicity of 70% to less than 90%) | 5 (A herbicidal effect or phytotoxicity of 90% or more) |  |  |  |  | 
CCCOc1ccccc1CS(=O)(=O)C1=NOC(C)(C)C1 [Compound 1-46] | 4 (A herbicidal effect or phytotoxicity of 70% to less than 90%) | 5 (A herbicidal effect or phytotoxicity of 90% or more) | 5 (A herbicidal effect or phytotoxicity of 90% or more) | 4 (A herbicidal effect or phytotoxicity of 70% to less than 90%) | 5 (A herbicidal effect or phytotoxicity of 90% or more) | 5 (A herbicidal effect or phytotoxicity of 90% or more) |  |  |  | 
CC1(C)CC(S(=O)(=O)Cc2cc(F)ccc2F)=NO1 [Compound 1-498] | 5 (A herbicidal effect or phytotoxicity of 90% or more) | 5 (A herbicidal effect or phytotoxicity of 90% or more) |  | 5 (A herbicidal effect or phytotoxicity of 90% or more) |  | 5 (A herbicidal effect or phytotoxicity of 90% or more) | 5 (A herbicidal effect or phytotoxicity of 90% or more) | 5 (A herbicidal effect or phytotoxicity of 90% or more) |  | 
CC12CCCCCC1C(S(=O)(=O)Cc1c(F)cccc1F)=NO2 (centres unmarked) [Compound 1-556] |  | 5 (A herbicidal effect or phytotoxicity of 90% or more) |  | 4 (A herbicidal effect or phytotoxicity of 70% to less than 90%) |  |  | 5 (A herbicidal effect or phytotoxicity of 90% or more) | 4 (A herbicidal effect or phytotoxicity of 70% to less than 90%) | 0 (A herbicidal effect or phytotoxicity of 0% to less than 10%) | 5 (A herbicidal effect or phytotoxicity of 90% or more)
CCCCOc1cccc(Cl)c1CS(=O)(=O)C1=NOC(C)(C)C1 [Compound 1-574] |  | 5 (A herbicidal effect or phytotoxicity of 90% or more) |  | 4 (A herbicidal effect or phytotoxicity of 70% to less than 90%) |  |  | 5 (A herbicidal effect or phytotoxicity of 90% or more) | 5 (A herbicidal effect or phytotoxicity of 90% or more) | 1 (A herbicidal effect or phytotoxicity of 10% to less than 30%) | 5 (A herbicidal effect or phytotoxicity of 90% or more)
C=CCOC(=O)c1ccccc1CS(=O)(=O)C1=NOC(C)(C)C1 [Compound 1-599] |  | 5 (A herbicidal effect or phytotoxicity of 90% or more) |  | 4 (A herbicidal effect or phytotoxicity of 70% to less than 90%) |  |  | 5 (A herbicidal effect or phytotoxicity of 90% or more) | 5 (A herbicidal effect or phytotoxicity of 90% or more) | 1 (A herbicidal effect or phytotoxicity of 10% to less than 30%) | 5 (A herbicidal effect or phytotoxicity of 90% or more)
